Laboratory results from US8592421B2, “Cyclic bioisosters of purine system derivatives and a pharmaceutical composition based thereon” (priority 2003, dated 2013).

How the values were obtained:
[1] = tested on: embryonic fibroblasts of mouse NIH-3T3; test: Effect on endocellular pHi of fibroblasts (microspectrofluorimetry with FDA / BCECF-AM); type: cell-based; details: for rise of pHi: fibroblasts in an attached spread state; for change of pHi: medium DME without blood serum, 20 minutes; for increase of pHi of cytosol: medium with 10.0% blood serum, 20 minutes after addition
How it was run: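 Mouse NIH-3T3 embryonic fibroblasts, grown at 37° C. under 5.0% carbon dioxide in DMEM with 2.2 g/l sodium bicarbonate, 80.0 mkg/ml gentamicin and 10.0% embryonal veal serum, were loaded with FDA or BCECF-AM. Intracellular pH was measured by microspectrofluorimetry at 37° C., exciting at λ=490 nm and taking the ratio of emissions at λ=535 nm and λ=570 nm, averaged over 40-60 cells and calibrated with nigericyn in high-potassium buffers.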

[2] = Chronic toxicity of suppositories: indexes of peripheral blood; type: in vivo, rats; set-up: Thrombocytes: unit not given here; details: male rats, suppositories rectally; for Basophiles / Juveniles: 1 month/2 months (one value given), control 0

With `O=c1[nH]n([C@@H]2O[C@H](CO)[C@@H](O)[C@H]2O)c(=O)c2nc(O)cnc12.[Na].[Na]` [Compound 23, disodium salt of 2-hydroxy-7-(β-D-ribofuranosile)pyrazine[2,3—Cl]-6H-pyridazine-5,8-dione] the “rise of pHi” value ([1]; 2.0 mkg/ml, on the average) was 0.10 unit pHi, the “rise of pHi” value ([1]; 20.0 mkg/ml, on the average) was 0.07 unit pHi and the “change of pHi” value ([1]; 0.02 mkg/ml) was “no effect was found”. For the same molecule, the “change of pHi” value ([1]; 0.2 mkg/ml) was “no effect was found”, the “change of pHi” value ([1]; 2.0 mkg/ml, on the average) was 0.08 unit pHi and the “change of pHi” value ([1]; 20.0 mkg/ml, on the average) was 0.08 unit pHi. For the same molecule, the “change of pHi” value ([1]; 200 mkg/ml) was “no effect was found”, the “change of pHi” value ([1]; 1000 mkg/ml) was “no effect was found” and the “increase of pHi of cytosol” value ([1]; 0.02 mkg/ml) was “do not initiate a change of pH”. The “increase of pHi of cytosol” value ([1]; 0.2 mkg/ml, on the average) was 0.1 unit pH, the “increase of pHi of cytosol” value ([1]; 2.0 mkg/ml, on the average) was 0.12 unit pH and the “increase of pHi of cytosol” value ([1]; 20.0 mkg/ml) was “do not initiate a change of pH”. It also gave a Basophiles ([2]; 50 mg/kg) of 0%, a Juveniles ([2]; 50 mg/kg) of 0% and a Stab neutrophil ([2]; 50 mg/kg, 1 month, control 0.8 ± 0.4) of 1.1 ± 0.5%. For the same molecule, the REE ([2]; 50 mg/kg, 1 month, control 2.2 ± 0.4) was 1.7 ± 0.8 mm/h, the Reticulocytes ([2]; 50 mg/kg, 1 month, control 2.8%0.3) was 2.7 ± 0.3% and the Eosinophiles ([2]; 50 mg/kg, 1 month, control 4.0 + 0.3) was 3.6 ± 0.5%. The Erythrocytes ([2]; 50 mg/kg, 1 month, control 5.6 ± 0.1) was 5.7 ± 0.1 mln/mm^3, the Hemoglobin ([2]; 50 mg/kg, 1 month, control 10.5 ± 0.2) was 10.7 ± 0.1 mmol/L and the Leukocyte ([2]; 50 mg/kg, 1 month, control 17.4 ± 1.3) was 15.5 ± 1.1 thousand/mm^3. For the same molecule, the Haematocrite ([2]; 50 mg/kg, 1 month, control 45.9 ± 1.7) was 47.7 ± 1.2%, the “Average volume of erythrocytes” value ([2]; 50 mg/kg, 1 month, control 81.4 ± 1.7) was 82.7 ± 1.6 Mkm^3 and the “Coagulation, time” value ([2]; 50 mg/kg, 1 month, control 152 ± 10.2) was 150 ± 15 s. For the same molecule, the Thrombocytes ([2]; 50 mg/kg, 1 month, control 707 ± 23) was 659 ± 18, the REE ([2]; 50 mg/kg, 2 months, control 1.4 ± 0.2) was 1.5 ± 0.1 mm/h and the Stab neutrophil ([2]; 50 mg/kg, 2 months, control 2.4 ± 0.4) was 1.6 ± 0.2%. It also gave a Reticulocytes ([2]; 50 mg/kg, 2 months, control 2.9 ± 0.2) of 2.8 ± 0.1%, an Eosinophiles ([2]; 50 mg/kg, 2 months, control 4.4 + 1.2) of 4.0 ± 0.7% and an Erythrocytes ([2]; 50 mg/kg, 2 months, control 6.1 ± 0.1) of 6.0 ± 0.2 mln/mm^3. For the same molecule, the Hemoglobin ([2]; 50 mg/kg, 2 months, control 11.4 ± 0.2) was 11.0 ± 0.1 mmol/L, the Leukocyte ([2]; 50 mg/kg, 2 months, control 19.1 ± 1.9) was 17.6 ± 1.2 thousand/mm^3 and the Haematocrite ([2]; 50 mg/kg, 2 months, control 45.9 ± 1.8) was 46.5 ± 1.3%. For the same molecule, the “Average volume of erythrocytes” value ([2]; 50 mg/kg, 2 months, control 74.6 + 1.9) was 77.5 ± 1.7 Mkm^3, the “Coagulation, time” value ([2]; 50 mg/kg, 2 months, control 316 ± 8) was 313 ± 17 s and the Thrombocytes ([2]; 50 mg/kg, 2 months, control 593 ± 14) was 586 ± 28. It also gave a Basophiles ([2]; 500 mg/kg) of 0%, a Juveniles ([2]; 500 mg/kg) of 0% and a Stab neutrophil ([2]; 500 mg/kg, 1 month, control 0.8 ± 0.4) of 1.0 ± 0.3%. It also gave an REE ([2]; 500 mg/kg, 1 month, control 2.2 ± 0.4) of 2.0 ± 0.3 mm/h, a Reticulocytes ([2]; 500 mg/kg, 1 month, control 2.8%0.3) of 3.1 ± 0.1% and an Eosinophiles ([2]; 500 mg/kg, 1 month, control 4.0 + 0.3) of 3.3 ± 0.7%. The Erythrocytes ([2]; 500 mg/kg, 1 month, control 5.6 ± 0.1) was 5.7 ± 0.2 mln/mm^3, the Hemoglobin ([2]; 500 mg/kg, 1 month, control 10.5 ± 0.2) was 10.7 ± 0.2 mmol/L and the Leukocyte ([2]; 500 mg/kg, 1 month, control 17.4 ± 1.3) was 16.4 ± 1.1 thousand/mm^3. For the same molecule, the Haematocrite ([2]; 500 mg/kg, 1 month, control 45.9 ± 1.7) was 47.9 ± 1.1%, the “Average volume of erythrocytes” value ([2]; 500 mg/kg, 1 month, control 81.4 ± 1.7) was 83.5 ± 1.7 Mkm^3 and the “Coagulation, time” value ([2]; 500 mg/kg, 1 month, control 152 ± 10.2) was 156 ± 11 s. The Thrombocytes ([2]; 500 mg/kg, 1 month, control 707 ± 23) was 678 ± 18, the REE ([2]; 500 mg/kg, 2 months, control 1.4 ± 0.2) was 1.7 ± 0.3 mm/h and the Stab neutrophil ([2]; 500 mg/kg, 2 months, control 2.4 ± 0.4) was 1.6 ± 0.2%. The Reticulocytes ([2]; 500 mg/kg, 2 months, control 2.9 ± 0.2) was 3.4 ± 0.1%, the Eosinophiles ([2]; 500 mg/kg, 2 months, control 4.4 + 1.2) was 3.8 ± 1.3% and the Erythrocytes ([2]; 500 mg/kg, 2 months, control 6.1 ± 0.1) was 6.4 ± 0.2 mln/mm^3. The Hemoglobin ([2]; 500 mg/kg, 2 months, control 11.4 ± 0.2) was 12.3 ± 0.3 mmol/L, the Leukocyte ([2]; 500 mg/kg, 2 months, control 19.1 ± 1.9) was 20.1 ± 1.7 thousand/mm^3 and the Haematocrite ([2]; 500 mg/kg, 2 months, control 45.9 ± 1.8) was 49.4 ± 1.9%. The “Average volume of erythrocytes” value ([2]; 500 mg/kg, 2 months, control 74.6 + 1.9) was 82.1 ± 1.4 Mkm^3, the “Coagulation, time” value ([2]; 500 mg/kg, 2 months, control 316 ± 8) was 3171 ± 12 s and the Thrombocytes ([2]; 500 mg/kg, 2 months, control 593 ± 14) was 628 ± 23.
For `Nc1ncc2c(=O)[nH][nH]c(=O)c2n1` [Compound 36, 2-amino-pyrimido[4,5-d]-6H-pyridazine-5,8-dione], the “rise of pHi” value ([1]; 2.0 mkg/ml, on the average) was 0.10 unit pHi, the “rise of pHi” value ([1]; 20.0 mkg/ml, on the average) was 0.07 unit pHi and the “change of pHi” value ([1]; 0.02 mkg/ml) was “no effect was found”. For the same molecule, the “change of pHi” value ([1]; 0.2 mkg/ml) was “no effect was found”, the “change of pHi” value ([1]; 2.0 mkg/ml, on the average) was 0.08 unit pHi and the “change of pHi” value ([1]; 20.0 mkg/ml, on the average) was 0.08 unit pHi. For the same molecule, the “change of pHi” value ([1]; 200 mkg/ml) was “no effect was found”, the “change of pHi” value ([1]; 1000 mkg/ml) was “no effect was found” and the “increase of pHi of cytosol” value ([1]; 0.02 mkg/ml) was “do not initiate a change of pH”. The “increase of pHi of cytosol” value ([1]; 0.2 mkg/ml, on the average) was 0.1 unit pH, the “increase of pHi of cytosol” value ([1]; 2.0 mkg/ml, on the average) was 0.12 unit pH and the “increase of pHi of cytosol” value ([1]; 20.0 mkg/ml) was “do not initiate a change of pH”.
